Key:
[1] = biological target: T1, CREBBP (1084-1701) (Homo sapiens, UniProt Q92793); assay: Biochemical assay for CREBBP (1084-1701), SAMDI; conditions: SAMDI, read-out: CREBBP Biochemistry IC50
T1 construct: measured in the following biochemical assay using CREBBP (1084-1701); purchased
How it was run: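 CREBBP (1084-1701) preincubated with compound 30 min at RT, then substrate mix (biotin-H3 11-25 K14R/K23R peptide, acetyl-CoA) added for 30 min at RT. Reaction stopped with formic acid, neutralised with sodium bicarbonate. Peptide acetylation read by SAMDI mass spectrometry to derive IC50.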

[2] = tested on: 647V cells; assay: High throughput proliferation (HTP) assay; format: cell-based; conditions: Homo sapiens, 647-V, high throughput proliferation; read-out: CREBBP HTP IC50
How it was run: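 Exponentially growing 647V cells in DMEM with 15% FBS were treated in triplicate with increasing compound concentrations at 37° C, 5% CO2. Viable cell number was read by CellTiter-Glo luminescence on day 7; IC50 in micromolar.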

[3] = biological target: T2, EP300 (P300(1048-1664)) (Homo sapiens, UniProt Q09472); assay: Biochemical assay for EP300, SAMDI; conditions: EP300, SAMDI; read-out: EP300 Biochemistry IC50
T2 construct: P300(1048-1664)
T2 sequence (Q09472 1048-1664): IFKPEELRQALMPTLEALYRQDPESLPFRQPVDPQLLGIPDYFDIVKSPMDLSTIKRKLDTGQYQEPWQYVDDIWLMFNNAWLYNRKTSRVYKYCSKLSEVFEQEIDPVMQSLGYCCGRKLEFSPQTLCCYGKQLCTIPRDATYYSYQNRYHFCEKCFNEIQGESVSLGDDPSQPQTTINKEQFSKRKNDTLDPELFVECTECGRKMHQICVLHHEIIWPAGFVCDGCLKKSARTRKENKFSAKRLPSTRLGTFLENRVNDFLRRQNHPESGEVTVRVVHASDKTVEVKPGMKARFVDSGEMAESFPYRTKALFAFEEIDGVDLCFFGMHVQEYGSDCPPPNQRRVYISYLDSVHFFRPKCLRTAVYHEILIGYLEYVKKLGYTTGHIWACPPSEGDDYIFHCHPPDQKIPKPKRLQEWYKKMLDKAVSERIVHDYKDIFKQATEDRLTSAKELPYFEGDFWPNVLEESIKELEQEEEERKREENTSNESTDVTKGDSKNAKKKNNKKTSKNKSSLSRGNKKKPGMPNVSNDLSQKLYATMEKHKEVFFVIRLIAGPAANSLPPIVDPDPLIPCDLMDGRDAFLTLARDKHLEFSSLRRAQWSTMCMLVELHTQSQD
Description: The following example describes materials and methods relating to a biochemical assay for EP300. IC50 values (micromolar (μM)) are summarized in Table 1, Table 2, and Table 3 under the column labeled: “EP300 Biochemistry IC50 (micromolar).”

[4] = tested on: H3K18Ac in HB-CLS-2 cells; assay: H3K18AC in-cell western (ICW) assay; format: cell-based; conditions: H3K18Ac in-cell western; read-out: CREBBP ICW IC50
How it was run: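 HB-CLS-2 cells seeded 16–24 hours before 2 hr compound treatment at 37° C, 5% CO2, then methanol-fixed. H3K18Ac detected with rabbit monoclonal primary (overnight, 4° C) and 800CW anti-rabbit secondary; DRAQ5 stained DNA. Plates imaged at 700 and 800 nm for integrated intensity; IC50 in μM.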

T1 sequence (Q92793 1084-1701): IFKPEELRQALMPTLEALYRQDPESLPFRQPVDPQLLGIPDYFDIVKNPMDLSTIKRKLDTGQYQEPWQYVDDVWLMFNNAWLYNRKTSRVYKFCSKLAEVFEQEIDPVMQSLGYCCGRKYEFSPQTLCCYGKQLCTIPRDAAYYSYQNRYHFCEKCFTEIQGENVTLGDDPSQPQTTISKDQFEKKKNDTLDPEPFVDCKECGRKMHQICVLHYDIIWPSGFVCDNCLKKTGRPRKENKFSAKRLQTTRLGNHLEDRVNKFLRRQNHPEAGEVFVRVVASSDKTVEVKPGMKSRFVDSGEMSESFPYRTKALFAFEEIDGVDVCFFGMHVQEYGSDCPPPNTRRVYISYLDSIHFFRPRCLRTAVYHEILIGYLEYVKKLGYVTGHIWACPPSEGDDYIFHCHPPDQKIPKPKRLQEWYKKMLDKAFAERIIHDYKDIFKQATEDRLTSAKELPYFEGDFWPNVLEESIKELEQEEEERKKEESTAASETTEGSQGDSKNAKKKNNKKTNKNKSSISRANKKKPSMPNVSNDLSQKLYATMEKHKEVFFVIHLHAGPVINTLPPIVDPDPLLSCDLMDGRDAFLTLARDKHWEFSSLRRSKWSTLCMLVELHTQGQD

Structure (SMILES)	IC50 [1]	IC50 [2]	IC50 [3]	IC50 [4]
CCn1ncc(CN(C)C(=O)c2cc(-c3ccc(NC4CN(CC(F)(F)F)C4)c(C)n3)nc3ccc(Cl)cc23)c1C [Compound 603]	48.7 nM	253 nM	20.3 nM	174 nM
CCn1ncc(CN(C)C(=O)c2cc(-c3ccc(NCC(O)CN(C)C)c(C)n3)nc3ccc(Cl)cc23)c1C (centres unmarked) [Compound 604]	28.5 nM	28.4 nM	11.4 nM	64.8 nM
CCc1ncc(CN(C)C(=O)c2nc(-c3ccc(NCCN(C)C)nc3C)nc3ccc(Cl)cc23)n1C [Compound 605]	533 nM	447 nM	3090 nM	943 nM
CCc1noc(C(C)N(C)C(=O)c2nc(-c3ccc(NCCN(C)C)c(C)c3)nc3ccc(Cl)cc23)c1C (centres unmarked) [Compound 606]	30.3 nM	80.7 nM	14 nM	294 nM
CCn1ncc([C@H](C)N(C)C(=O)c2cc(-c3ccc(NCCNC)c(C)n3)nc3ccc(Cl)cc23)c1C [Compound 607]	6510 nM	1970 nM	3380 nM	3270 nM
CCn1ncc([C@@H](C)N(C)C(=O)c2cc(-c3ccc(NCCNC)c(C)n3)nc3ccc(Cl)cc23)c1C [Compound 608]	92.8 nM	39 nM	26.4 nM	107 nM
CCn1ncc([C@@H](C)N(C)C(=O)c2cc(-c3ccc(NCCN(C)C)c(C)n3)nc3ccc(Cl)cc23)c1C [Compound 610]	59.6 nM	37.8 nM	20.9 nM	85 nM
CCn1ncc(CN(C)C(=O)c2nc(-c3cc(C)nc(NCCOC)c3)nc3ccc(Cl)cc23)c1C [Compound 611]	73.6 nM	312 nM	493 nM	345 nM
CCn1ncc(CN(C)C(=O)c2nc(-c3cc4c(NC)[nH]nc4cc3C)nc3ccc(C)cc23)c1C [Compound 612]	18 nM	40.9 nM	6.6 nM	46.3 nM
CCc1noc(CN(C)C(=O)c2cc(-c3ccc(NC4CN(C)C4)c(C)n3)nc3ccc(Cl)cc23)c1C [Compound 613]	19.1 nM	51.8 nM	11.2 nM	53.8 nM
CCn1ncc(CN(C)C(=O)c2nc(-c3cc4c(NC)[nH]nc4cc3C)nc3ccc(C4CC4)cc23)c1C [Compound 614]	22.9 nM	34.6 nM	8.7 nM	32.1 nM
CCc1noc(CN(C)C(=O)c2nc(-c3cc4c(NC)[nH]nc4cc3C)nc3ccc(Cl)cc23)c1C [Compound 615]	9.75 nM	19.5 nM	3.1 nM	29.1 nM
CNc1[nH]nc2ccc(-c3nc(C(=O)N(C)Cc4cnc(C5CC5)n4C)c4cc(COC)ccc4n3)cc12 [Compound 616]	25.1 nM	160 nM	14.4 nM	102 nM
CNc1[nH]nc2cc(C)c(-c3nc(C(=O)N(C)Cc4cnc(C5CC5)n4C)c4cc(COC)ccc4n3)cc12 [Compound 617]	40.8 nM	84.1 nM	13.3 nM	87.6 nM
CCn1ncc(CN(C)C(=O)c2nc(-c3cc(C(F)(F)F)c4[nH]nc(N)c4c3)nc3ccc(Cl)cc23)c1C [Compound 618]	53.7 nM	701 nM	285 nM	248 nM
CCn1ncc(CN(C)C(=O)c2cc(-c3ccc(NCCN(C)C)c(C(F)(F)F)n3)nc3ccc(Cl)cc23)c1C [Compound 619]	23.8 nM	32.5 nM	14.5 nM	59.9 nM
CNc1[nH]nc2cc(C)c(-c3nc(C(=O)N(C)Cc4cnn(CC(F)(F)F)c4C)c4cc(Cl)ccc4n3)cc12 [Compound 620]	25.1 nM	77.7 nM	12.3 nM	67.2 nM

From patent US20220144812A1, “QUINOLINE DERIVATIVES AND THEIR USE FOR THE TREATMENT OF CANCER” (Epizyme, Inc., priority 2019, published 2022)
